Assay results from patent US5753675A, “Quinoline analogs of mevalonolactone and derivatives thereof” (Novartis Pharmaceuticals Corporation, priority 1990, dated 1998).
Read-outs that look alike come from different tables or passages of the source.

How the values were obtained:
HMG-CoA reductase = molecular target: T1, HMG-CoA reductase (Rattus norvegicus, UniProt P51639); assay: Test A. In Vitro Microsomal Assay of HMG-CoA Reductase Inhibition; assay type: biochemical; settings: rat liver microsomal suspensions, [14C]HMG-CoA substrate; test concentrations 0.05-1000 μmolar; read-out: IC50 (concentration calculated to produce a 50% inhibition of HMG-CoA reductase activity)
T1 construct: rat liver microsomal suspensions, freshly prepared from male Sprague-Dawley rats; from tissue; host or cells: rat liver microsomes (male Sprague-Dawley, 150-225 g)
T1 sequence (P51639 1-887): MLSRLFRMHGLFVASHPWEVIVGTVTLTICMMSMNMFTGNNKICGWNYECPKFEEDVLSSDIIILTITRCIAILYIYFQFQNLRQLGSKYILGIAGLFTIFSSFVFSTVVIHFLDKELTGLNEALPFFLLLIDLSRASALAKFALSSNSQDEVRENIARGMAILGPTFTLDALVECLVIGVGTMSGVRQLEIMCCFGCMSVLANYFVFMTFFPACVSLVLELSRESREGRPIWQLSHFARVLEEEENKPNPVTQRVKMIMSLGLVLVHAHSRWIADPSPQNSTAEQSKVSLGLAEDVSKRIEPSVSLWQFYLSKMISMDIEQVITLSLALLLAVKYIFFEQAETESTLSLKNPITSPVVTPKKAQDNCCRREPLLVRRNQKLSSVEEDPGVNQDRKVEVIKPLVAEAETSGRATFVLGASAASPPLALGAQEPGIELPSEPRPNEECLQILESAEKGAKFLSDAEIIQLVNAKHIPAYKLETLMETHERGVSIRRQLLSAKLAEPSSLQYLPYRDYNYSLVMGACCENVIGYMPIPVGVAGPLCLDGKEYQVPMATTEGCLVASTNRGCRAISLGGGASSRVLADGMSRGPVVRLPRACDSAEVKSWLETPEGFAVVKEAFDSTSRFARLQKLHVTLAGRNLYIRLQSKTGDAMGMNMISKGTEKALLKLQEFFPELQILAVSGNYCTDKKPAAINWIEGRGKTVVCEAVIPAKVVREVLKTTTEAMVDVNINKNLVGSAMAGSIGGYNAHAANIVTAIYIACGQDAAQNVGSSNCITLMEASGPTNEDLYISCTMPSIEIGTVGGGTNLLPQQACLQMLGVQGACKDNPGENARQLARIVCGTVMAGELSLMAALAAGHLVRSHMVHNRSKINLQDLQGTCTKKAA
Experimental: Test A. In Vitro Microsomal Assay of HMG-CoA Reductase Inhibition:
200 μl. aliquots (1.08-1.50 mg./ml.) of rat liver microsomal suspensions, freshly prepared from male Sprague-Dawley rats (150-225 g. body weight), in Buffer A with 10 mmol. dithiothreitol are incubated with 10 μl. of a solution of the test substance in dimethylacetamide and assayed for HMG-CoA reductase activity as described in Ackerman et al., J. Lipid Res. 18, 408-413 (1977). In the assay the microsomes are the source of the HMG-CoA reductase enzyme which catalyzes the reduction of HMG-CoA to mevalonate. The assay employs a chloroform extraction or a Dowex® 1X8 (200-400 mesh, formate form) ion exchange column to separate the product, [^14 C]mevalonolactone, formed by the HMG-CoA reductase reduction of the substrate, [^14 C]HMG-CoA. [^3 H]mevalonolactone is added as an internal reference. Inhibition of HMG-CoA reductase is calculated from the decrease in specific activity ([^14 C/^3 H]mevalonate) of test groups compared to controls.
IC50 is the concentration of the test substance in the assay system calculated to produce a 50% inhibition of HMG-CoA reductase activity. The tests are run at concentrations of test substance between 0.05 and 1000 μmolar.

[1] = test system: 3β-hydroxysterol synthesis (cholesterol biosynthesis); assay: Test B. In Vivo Cholesterol Biosynthesis Inhibition Test; settings: Rattus norvegicus, ip, 1 h, read-out: ED50 (inhibition of 3β-hydroxysterol synthesis)
Experimental: Test B. In Vivo Cholesterol Biosynthesis Inhibition Test: In vivo studies utilize male Wistar Royal Hart rats weighing 150±20 g. which have been kept for 7-10 days on an altered light cycle (6:30 A.M.-6:30 P.M. dark) housed two per cage and fed powdered Purina Rat Chow and water ad libitum. Three hours before the diurnal maximum of cholesterol synthesis at mid-dark, the rats are administered the test substance (e.g., 0.01-20 mg./kg. body weight) dissolved or as a suspension in 0.5% carboxymethyl-cellulose in a volume of 1 ml./100 g. body weight. Controls receive vehicle alone. One hour after receiving the test substance, the rats are injected intraperitoneally with about 25 μCi/100 g. body weight of sodium [1-^14 C]acetate 1-3 mCi/mmol. Two hours after mid-dark, blood samples are obtained under sodium hexobarbital anesthesia, and the serum is separated by centrifugation. […] The [^14 C]digitonides are then counted by liquid scintillation spectrometry. […] Inhibition of 3β-hydroxysterol synthesis is calculated from the reduction in the nCi of 3β-hydroxysterols formed from test groups compared to controls.

[2] = male Wistar Royal Hart rats, in 0.5% carboxymethyl-cellulose, sodium [1-14C]acetate i.p. one hour after test substance, serum

IC50 (HMG-CoA reductase) [µM] | SMILES | ED50 [1, 2] [mg/kg] | ED50 [1] [mg/kg]
0.41 | CCOC(=O)C[C@H](O)C[C@H](O)/C=C/c1c(C(C)C)nc2ccccc2c1-c1ccc(F)cc1 (relative stereo) [Example 3C] | 0.49 | 
 | CC[C@H](C)C(=O)O[C@H]1CCC=C2C=C[C@H](C)[C@H](CC[C@@H]3C[C@@H](O)CC(=O)O3)[C@H]21 [Compactin, reference compound] | 3.5 | 
0.53 | CC(C)c1nc2ccccc2c(-c2ccc(F)cc2)c1/C=C/C(O)CC(O)CC(=O)O (stereo not drawn) [Example 4] | > 1 | 
 | CC[C@H](C)C(=O)O[C@H]1C[C@@H](C)C=C2C=C[C@H](C)[C@H](CC[C@@H]3C[C@@H](O)CC(=O)O3)[C@H]21 [Mevinolin, reference compound] |  | 0.41
